# From patent US6900010B2, “Compositions and methods for detecting human immunodeficiency virus” (MUSC Foundation For Research Development, priority 1999, dated 2005)
# Test system: HIV (strain GRCSF) in HeLaD4R4 cells
# Assay: HIV infection of HeLaD4R4 cells with lacZ reporter, X-gal staining
# Format: cell-based
# From the text: A recombinant cell line was established from human cervical cancer HeLa cells. The HeLa cells were cotransfected with an expression vector (pRepD4R4) and a vector (pTAR3Clac) at a 1:1 ratio. As shown in FIG. 2A the expression vector pRepD4R4 includes CD4 receptor and CXCR4 receptor genes that are separated by an IRES sequence. As shown FIG. 2B the vector pTAR3Clac includes a reporter sequence comprising a promoter region that includes three copies of TAR sequences and a CMV basic promoter, and a lacZ reporter gene whose expression is under the control of the promoter. The stably-transfected cells were selected by culturing in medium containing G418 at 900 μg/ml. Each clone of the cells selected was subsequently cultured in duplicates, and one of the duplicates was infected with a low titer HIV stock solution. The low-titer HIV stock was collected from supernatant of a HeLa cell culture that was transfected with a B-cell tropic HIV provirus DNA (strain GRCSF) and incubated for 3 days post transfection.
# Upon infection of HIV contained in the stock solution, Tat protein expressed from the viral genome binds to TAR and induces expression of lacZ reporter gene to produce high level of β-galactosidase. The cell clones expressing β-galactosidase and stained blue with X-gal were identified, and the cells from the uninfected duplicate of the darkest blue colony were propagated. […]
smiles,measurement,setting,value
"Cc1cn([C@H]2C[C@H](N=[N+]=[N-])[C@@H](CO)O2)c(=O)[nH]c1=O [AZT, zidovudine]",cells infected and stained blue (HIV replication and infection),"AZT 100 μg/ml, four days of incubation, HeLaD4R4 cells",only a few clusters of cells were infected and stained blue
same,expression of the reporter gene,"in the presence of AZT, FIG. 3F compared with FIGS. 3B-3E",significantly reduced
